Data published in US4869900A, “Pharamaceutical composition containing ubidecarenone” (Zambon S.p.A., priority 1985, dated 1989).

Legend:
[1] = Stability of CoQ10 in the compositions (one year at 30° C.); format: physicochemical; conditions: after one year at 30° C., in the compositions or pharmaceutical preparations according to the invention
[2] = tested on: cardiac affections such as cardiac deficiency, ischemic disease; conditions: treatment of several cardiac affections such as cardiac deficiency; cited from earlier work
[3] = takes place through the lymphatic system; cited from earlier work

degradation of CoQ10 [1]: no degradation
Compound: COC1=C(OC)C(=O)C(C/C=C(\C)CC/C=C(\C)CC/C=C(\C)CC/C=C(\C)CC/C=C(\C)CC/C=C(\C)CC/C=C(\C)CC/C=C(\C)CC/C=C(\C)CCC=C(C)C)=C(C)C1=O [CoQ10, Coenzyme Q10]
clinical effectiveness [2]: clinically effective
absorption [3]: scarce
